Measurements reported in patent US12673039B2, “Methods of inducing autophagy using coumarin derivatives and related compounds” (Buck Institute for Research on Aging, priority 2019, dated 2026).

Legend:
HLH-30 = HLH-30 expression and activity in C. elegans (GFP reporter, immunoblot, qRT-PCR); format: in vivo; conditions: for HLH-30:GFP protein by immunoblot: MAH235 young adult worms
Procedure: FIG. 9A-9B illustrates that coumarin 106 (“C1”. “AIC106”) induces TFEB (HLH-30) signaling in C. elegans. FIG. 9A) Nuclear TFEB homologue HLH-30 levels in HLH-30 GFP tagged worms grown from day 1 at 20° C. as a measure of TFEB activation. Values are reported as average GFP intensity visualized at a young adult stage, day-5; **p<0.0002 versus control. FIG. 9B) TFEB mRNA levels by qPCR following 24 hrs of C1 treatment (10 μM 20 μM) in worms+/−HLH30 RNAi. Values represent RNA levels versus DMSO-only control RNAi; *p<0.001 versus control RNAi.
FIG. 18, panels A-F: AIC106 (Autophagy Inducing Coumarin-106) induces transcription of TFEB and its targets in vitro in rat N27 neuronal cells and in vivo in C. elegans. Panel A) Relative fold change in TFEB promoter activity compared to DMSO-control was determined by quantifying luciferase activity in supernatants collected from rat N27 neuronal cells post-24 hour treatment with C1 (AIC106), D1 and D2. [n=3 independent experiments (mean±SEM), **p<0.01, by one-way ANOVA with Dunnett's multiple comparisons test]. Panel B) Chemical structure of AIC106 and its structural derivative D1 and D2. Panel C) Relative fold change in mRNA of tfeb and its targets compared to DMSO-control were quantified using qRT-PCR in N27 neuronal cells post-24 hour treatment with AIC106 [N=3 independent experiments (mean±SD). *p<0.05, **p<0.01 and ****p<0.0001, by two-way ANOVA with Sidak's multiple comparisons test]. Panel D) Changes in HLH-30 expression were measured by quantifying GFP intensity in an individual GFP-tagged HLH-30 strain (MAH235) post-24 hours treatment with AIC106 and DMSO-control. [N=3 independent experiments (mean±SD). ****p<0.0001, by unpaired t-test]. Panel E) HLH-30; GFP (MAH235) were monitored by fluorescence microscopy. Panel F) Relative fold change in mRNA of hlh-30 and its targets compared to DMSO-control were quantified using qRT-PCR in young adult wild type N2 worms post-24 hours treatment with AIC106. [N=3 independent experiments (mean±SD). *p<0.05, **p<0.01 and ***p<0.001, by two-way ANOVA with Sidak's multiple comparisons test].
FIG. 22, panels A-H: AIC106-induced HLH-30 expression is mediated by the nuclear hormone receptor DAF-12. Panel A) The upstream promoter region (2 kB) of hlh-30 was analyzed by JASPAR CORE database to determine DAF-12 binding sites (1: SEQ ID NO:1, 2: 1: SEQ ID NO:2, 3: SEQ ID NO:3, 4: SEQ ID NO:4, 5: SEQ ID NO:5, 6: SEQ ID NO:6, 7: SEQ ID NO:7, 8: SEQ ID NO:8, 9: SEQ ID NO:9, 10: SEQ ID NO:10, 11: SEQ ID NO:11, 12: SEQ ID NO:12). Panel B) Relative fold change in mRNA of hlh-30 compared to DMSO-control was quantified using qRT-PCR in young adult wild-type N2 and daf-12(rh61rh411) worms post-24 hours treatment with AIC106. [N=3 independent experiments (mean±SD). **p<0.01, by one-way ANOVA with Sidak's multiple comparisons test]. Panel C) Effects of AIC106 on DAF-12 activity was determined in a mammalian one-hybrid assay by quantifying changes in the luciferase activity of DAF-12 ligand (dafachronic acid, DA) induced treatment. [N=3 independent experiments (mean±SD). *p<0.05 **p<0.01 and ***p<0.001, by one-way ANOVA with Tukey's multiple comparisons test]. Panel D) Schematic diagram showing that addition of AIC106 or inhibition of DAF-12 ligand synthesis, which leads to un-liganded DAF-12 may result in enhanced HLH-30 expression. Panel E) Dafadine-A (DFA), a specific inhibitor of key enzyme required for synthesis of DAF-12 ligand induces HLH-30 expression. Immunoblot for GFP was performed on protein lysate of HLH-30; GFP (MAH235) young adult worms treated with DFA or DMSO-control for 24 hours. Panel F) Protection against mitochondrial toxin (FCCP) was determined by quantifying survival of young adult worms treated 24 hours with DFA or DMSO-control. [N=3 independent experiments (mean±SD). **p<0.01, by two-way ANOVA with Tukey's multiple comparisons test]. […]

C. elegans = experiment: FCCP mitochondrial toxin stress assay in C. elegans; format: in vivo; conditions: for resistance to mitochondrial toxin FCCP (survival): wild type worms, 24 hours treatment
Procedure: FIG. 20, panels A-H: AIC106 treatment improves mitochondrial health. Panel A) Changes in mitochondrial membrane potential were determined by quantifying fluorescence intensity of individual TMRM stained wild type N2 worms post-24 hours treatment with AIC106 and DMSO-control. [N=3 independent experiments (mean±SD). ****p<0.0001, by unpaired t-test]. Panel B) TMRM stained wild type N2 worms were monitored by fluorescence microscopy. Panel C) Mitophagy flux upon AIC106 treatment was determined in DLM14 young adult worms (TOMM-7 tagged to a peptide linked dual-Fluorescent GFP) by quantifying relative fold changes in ratio of monomeric-fluorescent protein (mFP) to dual-fluorescent protein (dFP) compared to DMSO-control. Panel D) Ability of AIC106 to rescue mitochondrial toxin (FCCP) sensitivity was determined as percent survival of 24 hours treated AIC106 and DMSO-control wild type N2 worms. [N=3 independent experiments (mean±SD). ****p<0.0001, by two-way ANOVA with Sidak's multiple comparisons test]. Panel E) Ability of AIC106 to rescue enhanced mitochondrial toxin (FCCP, 20 μM) sensitivity in mitophagy deficient parkin/pdr-1 mutant was determined as percent survival of 24 hours treated AIC106 and DMSO-control pdr-1(tm598) and pdr-1(tm598); hlh-30(tm1978) mutant. […] Panel F) Effect of AIC106 on mitochondrial biogenesis was determined by quantifying GFP fluorescence intensity in an individual SJ4143 worm (GFP targeted in mitochondria of intestinal cells) post-72 hours of treatment with AIC106 and DMSO-control. […] Panel G) SJ4143 worms were monitored by fluorescence microscopy. Panel H) Effects of AIC106 on basal (B) and maximum (M) mitochondrial respiration rate were determined by quantifying oxygen consumption rate (OCR) in wild type N2 and hlh-30(tm1978) mutant strain post-24 hours of treatment with AIC106 and DMSO-control. […]
FIG. 22, panels A-H: AIC106-induced HLH-30 expression is mediated by the nuclear hormone receptor DAF-12. […] Panel F) Protection against mitochondrial toxin (FCCP) was determined by quantifying survival of young adult worms treated 24 hours with DFA or DMSO-control. […]

Cc1cccc(C)c1OCc1cc(C(=O)N2CCC(c3ccncc3)CC2)no1 [DFA, dafadine-A, reference compound]
HLH-30:GFP protein by immunoblot (HLH-30; 24 hours): significant increase in HLH-30 expression
resistance to mitochondrial toxin FCCP (survival) (C. elegans): protected against mitochondrial toxin FCCP

O=c1oc2c3c4c(cc2c2c1CCC2)CCCN4CCC3 [C1, 2,3,6,7,10,11-Hexahydro-1H,5H-cyclopenta(3,4)(1)benzopyrano(6,7,8-ij)quinolizin-12(9H)-one]
activity and expression of HLH-30 (HLH-30; Example 1 (FIG. 9)): induction of activity and expression of the worm TFEB homologue HLH-30
HLH-30 expression (GFP intensity) (HLH-30; GFP-tagged HLH-30 strain MAH235, 24 hours): induces HLH-30 expression in worms
HLH-30:GFP protein by immunoblot (HLH-30; 24 hours): increase in HLH-30:GFP protein
HLH-30 expression (hlh-30 mRNA) (HLH-30; daf-12(rh61rh411) null mutant): failed to induce HLH-30 expression
mRNA levels of HLH-30 target genes (HLH-30; wild type N2 worms, 24 hours): mRNA levels of several HLH-30 target genes were also increased
FCCP sensitivity of pdr-1 mutant (C. elegans; pdr-1(tm598), FCCP 20 μM, hlh-30 dependent): significantly rescue enhanced mitochondrial sensitivity of pdr-1 mutant
resistance to mitochondrial toxin FCCP (survival) (C. elegans): more resistant to mitochondrial uncoupler FCCP
